Reference: the Kinase Knowledgebase extract (Sharma et al. 2016)
pIC50: −log10 of the molar value. “And” between values parts separate entries of the source, which are not always exact repeats. Identical values can stand only once.

Target: MAPK14 (UniProt Q16539)
Assay: Inhibition of MAPK14 Kinase Activity

Chain of MAPK14 (Q16539 whole entry, looked up): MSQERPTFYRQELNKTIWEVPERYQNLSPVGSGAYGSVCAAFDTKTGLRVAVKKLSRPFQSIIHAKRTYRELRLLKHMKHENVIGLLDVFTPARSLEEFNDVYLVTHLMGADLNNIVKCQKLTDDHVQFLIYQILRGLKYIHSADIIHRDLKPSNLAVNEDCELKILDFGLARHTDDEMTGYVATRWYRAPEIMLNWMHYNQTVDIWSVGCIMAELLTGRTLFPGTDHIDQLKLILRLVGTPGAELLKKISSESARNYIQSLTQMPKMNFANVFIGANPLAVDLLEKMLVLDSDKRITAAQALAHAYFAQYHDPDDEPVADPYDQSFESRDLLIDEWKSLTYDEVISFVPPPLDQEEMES

Row | pIC50 | Structure (SMILES)
1 | 5.85 | Oc1ccc(-c2nc(-c3ccccc3)[nH]c2-c2ccncc2)cc1
2 | 8.15 | COc1ccc(CNc2nccc(-c3[nH]c(C4CCNCC4)nc3-c3cccc(C(F)(F)F)c3)n2)cc1
3 | 6.52 | COc1ccc(-c2nc(-c3ccccc3)[nH]c2-c2ccncc2)cc1
4 | 7.15 | Fc1ccc(-c2nc(C3CCCCC3)[nH]c2-c2ccncc2)cc1
5 | 7.42 | COc1ccc(CNc2nccc(-c3[nH]c(-c4ccccc4)nc3-c3ccccc3)n2)cc1
6 | 6.82 | Clc1ccccc1-c1nc(-c2ccccc2)[nH]c1-c1ccncc1
7 | 5.68 | CC(C)c1nc(-c2ccccc2)[nH]c1-c1ccncc1
8 | 7.55 | Clc1ccc(-c2nc(-c3ccccc3)[nH]c2-c2ccncc2)cc1Cl
9 | 9.05 | C[C@@H](Nc1nccc(-c2[nH]c(C3CCNCC3)nc2-c2cccc(C(F)(F)F)c2)n1)c1ccccc1
10 | 6.01 | N#Cc1ccc(-c2nc(-c3ccccc3)[nH]c2-c2ccncc2)cc1
11 | 6.89 | Clc1cccc(-c2nc(-c3ccccc3)[nH]c2-c2ccncc2)c1
12 | 6.00 | c1ccc(-c2ccc(-c3nc(-c4ccccc4)[nH]c3-c3ccncc3)cc2)cc1
13 | 9.15 and 10.00 | C[C@H](Nc1nccc(-c2[nH]c(C3CCNCC3)nc2-c2cccc(C(F)(F)F)c2)n1)c1ccccc1
14 | 6.85 | Oc1cccc(-c2nc(-c3ccccc3)[nH]c2-c2ccncc2)c1
15 | 6.15 | c1ccc(-c2nc(-c3ccccc3)c(-c3ccncn3)[nH]2)cc1
16 | 6.77 | Fc1ccc(-c2nc[nH]c2-c2ccncc2)cc1
17 | 6.26 | COc1cccc(-c2nc(-c3ccccc3)[nH]c2-c2ccncc2)c1
18 | 6.92 | CNc1nccc(-c2[nH]c(-c3ccccc3)nc2-c2ccccc2)n1
19 | 7.07 | FC(F)(F)c1cccc(-c2nc(-c3ccccc3)[nH]c2-c2ccncc2)c1
20 | 7.42 | Nc1nccc(-c2[nH]c(-c3ccccc3)nc2-c2ccccc2)n1
21 | 6.86 | Clc1cc(Cl)cc(-c2nc(-c3ccccc3)[nH]c2-c2ccncc2)c1
22 | 7.33 | Clc1ccc(-c2nc(-c3ccccc3)[nH]c2-c2ccncc2)cc1
23 | 6.74 | c1ccc(-c2nc(-c3ccccc3)c(-c3ccncc3)[nH]2)cc1
24 | 6.70 | FC(F)(F)c1ccc(-c2nc(-c3ccccc3)[nH]c2-c2ccncc2)cc1
25 | 8.10 | Fc1ccc(-c2nc(C3CCNCC3)[nH]c2-c2ccncc2)cc1
26 | 8.15 | Nc1nccc(-c2[nH]c(C3CCNCC3)nc2-c2cccc(C(F)(F)F)c2)n1
27 | 6.31 | Fc1cccc(-c2nc(-c3ccccc3)[nH]c2-c2ccncc2)c1
